{
  "source": "paper PMC9229843",
  "about": "“Cancer-Related Somatic Mutations in Transmembrane Helices Alter Adenosine A1 Receptor Pharmacology” (Molecules, 2022)",
  "key": {"hA1AR G279S^7.44": {"molecular_target": "T1, hA1AR G279S^7.44 (Homo sapiens, UniProt P30542, G279S)", "T1 sequence (P30542 1-326 G279S)": "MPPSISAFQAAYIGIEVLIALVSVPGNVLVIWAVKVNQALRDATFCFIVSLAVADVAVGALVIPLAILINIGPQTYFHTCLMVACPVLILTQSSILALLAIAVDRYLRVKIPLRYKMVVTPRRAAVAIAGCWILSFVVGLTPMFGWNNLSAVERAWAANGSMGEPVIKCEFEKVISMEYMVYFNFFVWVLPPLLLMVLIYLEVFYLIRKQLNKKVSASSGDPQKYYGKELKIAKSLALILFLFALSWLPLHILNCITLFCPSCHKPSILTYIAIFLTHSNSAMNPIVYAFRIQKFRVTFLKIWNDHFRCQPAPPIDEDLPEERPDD", "test": "[3H]DPCPX radioligand displacement assay, CHO membranes", "type": "binding", "set-up": "HA; expressed in transfected cells; host or cells: CHO cells, transient PEI transfection; membranes prepared", "details": "fraction of high-affinity state; two-site model", "experimental": "Transient transfection of CHO cells with wild type or mutated hA1AR plasmid constructs was performed using a polyethylenimine (PEI) method. Cells were seeded in 10-cm culture dishes to achieve 50–60% confluency 24 h prior to transfection. On the day of transfection, cells were transfected with a PEI: DNA ratio of 3:1 and a plasmid DNA amount of 10 μg/dish. Moreover, 24 h post-transfection, the medium was refreshed, and 48 h after transfection, cells were collected and membranes were prepared as previously described. Membranes were aliquoted in 250 or 100 μL and stored at −80 °C. Membrane protein concentrations were determined using the BCA method.\nThe displacement assays were performed as described previously. […] After the addition of 25 µL per well of the Microscint scintillation cocktail (PerkinElmer, Groningen, The Netherlands), the filter-bound radioactivity was measured by scintillation spectrometry in a Microbeta2® 2450 microplate counter (PerkinElmer).\n(§1) All experimental data were analyzed by GraphPad Prism 7.0 or 8.0 (GraphPad Software Inc., San Diego, CA, USA). Data from yeast liquid growth and [^35S]GTPγS binding assays were analyzed by non-linear regression using “log (agonist) vs. response (three parameters)” or “log (inhibitor) vs. response (three parameters)” to obtain potency (EC50), inhibitory potency (IC50), and efficacy (Emax or Imax) values. […]"}, "hA1AR S246T^6.47": {"molecular_target": "T2, hA1AR S246T^6.47 (Homo sapiens, UniProt P30542, S246T)", "T2 sequence (P30542 1-326 S246T)": "T1 sequence (P30542 1-326 G279S) with S246T, S279G", "details": "ratio over basal activity of wild type hA1AR; yeast; 7 mM 3-AT", "experimental": "The plasmids, pDT-PGK_hA1AR, containing either wild type or mutated hA1AR were transformed into a MMY24 S. cerevisiae strain following the lithium acetate procedure.\nIn order to characterize the mutant hA1ARs, liquid growth assays in 96-well plates were performed to obtain concentration–growth curves as previously described. […] The overnight cultures were then diluted to 40,000 cells/mL (OD600 ≈ 0.02) in a selective medium without uracil, leucine, and histidine (YNB-ULH). For the determination of constitutive activity, 50 μL of yeast cells and 150 μL of YNB-ULH medium containing different concentrations of 3-AT and 0.8 IU/mL ADA were then added to each well. […] After incubation at 30 °C for 35 h in a Genios plate reader (TECAN, Zürich, Switzerland) with shaking for 1 min at 300 rpm every 10 min, the optical density was measured at a wavelength of 595 nm, which represented the level of yeast cell growth.\nas §1"}},
  "note": "Changes are numbered by the printed parent chain.",
  "data": [
    {"compound": "OC[C@H]1O[C@@H](n2cnc3c(NC4CCCC4)ncnc32)[C@H](O)[C@@H]1O", "note": "[CPA, N^6-cyclopentyladenosine]", "values": [
      {"measurement": "Fraction (High)", "setting": "hA1AR G279S^7.44", "result": "0.17 ± 0.04"},
      {"measurement": "Emax", "setting": "hA1AR S246T^6.47", "result": "4.81 ± 0.26"}
    ]}
  ]
}
